This passage reports GI50 results from patent US20250221998A1, “DISCOVERY OF COVALENT EGFR INHIBITOR THROUGH CYSTEINE 775” (Dana-Farber Cancer Institute, Inc., priority 2022, published 2025).

Assay [1] concerns the target EGFR mutant L858R Ba/F3 cells (Homo sapiens, UniProt P00533, L858R, cells depend on it). Kind of assay: Ba/F3 cell proliferation (Cell Titer Glo), EGFR L858R. The format is cell-based, murine. To be noted: 72 hours exposure, read-out: L858R BaF3 (μM), inhibitory activity against EGFR mutants. The source says:
(§1) The EGFR mutant L858R Ba/F3 cells have been previously described (Zhou, W., et al. Nature 462, 2009, 1070-1074). The EGFR C797S and C775S mutations were introduced via site directed mutagenesis using the Quick Change Site-Directed Mutagenesis kit into a vector containing EGFR L858R mutation (Stratagene; La Jolla, CA) according to the manufacturer's instructions. All constructs were confirmed by DNA sequencing. The constructs were then shuttled into the retroviral vector JP1540 by either using the Cre-recombination system (Agilent Technologies, Santa Clara, CA) or the In-fusion HD Cloning kit (Takara Bio USA, Inc.; Mountain view, CA). Ba/F3 cells were then infected with retrovirus per standard protocols, as described previously (Zhou, et al, Nature 2009). Stable clones were obtained by selection in puromycin (2 ug/ml). All BaF/3 mutant cells were maintained in RPMI 1640 (Cellgro; Mediatech Inc., Herndon, CA) supplemented with 10% FBS, 100 units/mL penicillin, 100 units/mL streptomycin.
(§2) Growth and inhibition of growth was assessed by the Cell Titer Glo assay (Promega, Madison, WI) and was performed according to the manufacturer's instructions. The Cell Titer Glo assay is a luminescence-based method used to determine the number of viable cells based on quantitation of the ATP present, which is directly proportional to the amount of metabolically active cells present. Ba/F3 cells of different EGFR genotypes were exposed to compounds for 72 hours and the number of cells used per experiment was determined empirically as has been previously established (Zhou, et al., Nature 2009). All experimental points were set up in triplicates in 384-well plates. […] The curves were fitted using a non-linear regression model with a sigmoidal dose response.
(§3) For inhibitory activity against EGFR mutants, the following designations are used: ≤0·25 μM=A, 0·25 μM˜0.5 μM=B, 0.5 μM˜2.5 μM=C, ≥2.5 μM=D.
For orientation: Cellular ATP, detected with luciferase, serves as a proxy for viable cell number.

In assay [2] the target is EGFR L858R/C797S Ba/F3 cells (Homo sapiens, UniProt P00533, C797S/L858R, cells depend on it). Kind of assay: Ba/F3 cell proliferation (Cell Titer Glo), EGFR L858R/C797S. It is filed as cell-based, murine. As to conditions: 72 hours exposure, read-out: L858R/C797S (μM), inhibitory activity against EGFR mutants.
Chain of EGFR L858R/C797S Ba/F3 cells (P00533 whole entry C797S/L858R): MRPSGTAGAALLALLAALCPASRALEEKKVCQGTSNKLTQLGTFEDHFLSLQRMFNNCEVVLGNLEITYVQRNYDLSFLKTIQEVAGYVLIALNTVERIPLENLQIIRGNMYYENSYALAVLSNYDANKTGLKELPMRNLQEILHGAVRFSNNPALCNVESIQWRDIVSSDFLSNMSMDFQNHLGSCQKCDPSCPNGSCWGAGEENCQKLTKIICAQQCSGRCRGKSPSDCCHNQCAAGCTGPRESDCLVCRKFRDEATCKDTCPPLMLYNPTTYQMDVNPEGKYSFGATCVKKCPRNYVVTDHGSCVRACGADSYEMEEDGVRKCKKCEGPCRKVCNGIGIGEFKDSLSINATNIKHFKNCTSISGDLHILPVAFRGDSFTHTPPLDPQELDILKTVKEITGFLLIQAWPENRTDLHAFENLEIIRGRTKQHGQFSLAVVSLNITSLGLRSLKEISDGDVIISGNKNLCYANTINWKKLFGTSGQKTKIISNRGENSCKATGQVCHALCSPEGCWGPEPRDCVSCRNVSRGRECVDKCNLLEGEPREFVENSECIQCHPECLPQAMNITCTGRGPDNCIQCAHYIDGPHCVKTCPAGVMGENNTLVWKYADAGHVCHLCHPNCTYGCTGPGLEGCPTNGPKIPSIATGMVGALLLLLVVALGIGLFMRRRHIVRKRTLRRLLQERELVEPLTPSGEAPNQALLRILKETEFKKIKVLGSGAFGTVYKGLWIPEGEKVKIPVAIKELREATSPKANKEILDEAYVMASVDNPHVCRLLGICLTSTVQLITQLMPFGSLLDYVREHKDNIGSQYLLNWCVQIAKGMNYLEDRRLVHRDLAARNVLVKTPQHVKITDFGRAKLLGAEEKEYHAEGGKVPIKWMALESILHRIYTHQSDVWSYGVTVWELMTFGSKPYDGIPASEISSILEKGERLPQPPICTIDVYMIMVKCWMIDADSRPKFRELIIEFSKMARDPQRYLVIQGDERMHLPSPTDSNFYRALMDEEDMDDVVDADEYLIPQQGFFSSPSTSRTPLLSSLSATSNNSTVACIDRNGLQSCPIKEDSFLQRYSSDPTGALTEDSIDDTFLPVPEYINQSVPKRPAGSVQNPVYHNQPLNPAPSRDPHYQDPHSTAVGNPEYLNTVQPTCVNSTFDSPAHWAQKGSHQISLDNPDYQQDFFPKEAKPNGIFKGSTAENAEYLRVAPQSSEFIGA
Text: as §1, §2, §3

Chain of EGFR mutant L858R Ba/F3 cells (P00533 whole entry L858R, the tested form may be a part): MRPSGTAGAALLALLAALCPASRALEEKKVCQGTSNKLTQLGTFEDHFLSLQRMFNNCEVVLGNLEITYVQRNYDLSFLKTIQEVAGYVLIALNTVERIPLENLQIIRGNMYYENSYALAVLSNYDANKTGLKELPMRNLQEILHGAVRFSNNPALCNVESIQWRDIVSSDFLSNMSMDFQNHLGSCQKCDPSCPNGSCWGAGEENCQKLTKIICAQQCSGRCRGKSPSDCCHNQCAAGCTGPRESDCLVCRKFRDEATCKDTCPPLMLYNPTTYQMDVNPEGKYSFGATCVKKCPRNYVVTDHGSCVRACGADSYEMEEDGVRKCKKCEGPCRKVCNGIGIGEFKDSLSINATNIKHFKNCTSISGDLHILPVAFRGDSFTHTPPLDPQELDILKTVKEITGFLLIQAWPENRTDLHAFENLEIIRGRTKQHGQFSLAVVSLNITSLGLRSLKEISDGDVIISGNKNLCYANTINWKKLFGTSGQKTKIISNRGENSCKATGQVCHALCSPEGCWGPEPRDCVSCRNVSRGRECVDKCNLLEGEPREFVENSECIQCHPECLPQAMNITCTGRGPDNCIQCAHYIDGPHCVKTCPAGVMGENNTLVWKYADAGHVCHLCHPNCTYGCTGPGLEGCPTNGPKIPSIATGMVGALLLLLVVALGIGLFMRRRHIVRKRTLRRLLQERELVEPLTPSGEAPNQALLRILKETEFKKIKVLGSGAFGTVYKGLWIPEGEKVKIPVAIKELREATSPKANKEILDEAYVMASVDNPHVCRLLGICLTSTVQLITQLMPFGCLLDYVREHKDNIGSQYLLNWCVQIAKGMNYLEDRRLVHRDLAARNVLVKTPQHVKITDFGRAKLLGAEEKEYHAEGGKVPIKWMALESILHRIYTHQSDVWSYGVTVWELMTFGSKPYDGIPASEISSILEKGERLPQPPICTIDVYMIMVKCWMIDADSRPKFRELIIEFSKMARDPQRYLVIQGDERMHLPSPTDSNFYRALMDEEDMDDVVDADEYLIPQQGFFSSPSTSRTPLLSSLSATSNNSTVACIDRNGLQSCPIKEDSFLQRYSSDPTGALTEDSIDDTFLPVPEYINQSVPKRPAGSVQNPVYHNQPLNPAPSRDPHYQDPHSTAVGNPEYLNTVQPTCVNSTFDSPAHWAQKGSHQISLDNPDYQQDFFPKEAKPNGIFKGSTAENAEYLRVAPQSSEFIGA

Take `C=CC(=O)N1CCN(c2cc3cnc(Nc4cc5n(c4)CCN(C)C5)nc3n(C)c2=O)c2cccc(C)c21` [Compound 085, 8-methyl-2-[(2-methyl-3,4-dihydro-1H-pyrrolo[1,2-a]pyrazin-7-yl)amino]-6-(5-methyl-4-prop-2-enoyl-2,3-dihydroquinoxalin-1-yl)pyrido[2,3-d]pyrimidin-7-one]: the GI50 in assay [1] and in assay [2] was ≥ 2.5 µM throughout.

In the case of `C=CC(=O)N1CCN(c2cc3cnc(Nc4ccc(OCCN(C)C)cc4)nc3n(C)c2=O)c2cccc(C)c21` [Compound 033, 2-[4-[2-(dimethylamino)ethoxy]anilino]-8-methyl-6-(5-methyl-4-prop-2-enoyl-2,3-dihydroquinoxalin-1-yl)pyrido[2,3-d]pyrimidin-7-one], the GI50 in assay [1] and in assay [2] was ≤ 0.25 µM in each case.

As to `C=CC(=O)N1CCN(c2cc3cnc(Nc4ccc(OCCN(C)C)cc4)nc3n(C)c2=O)c2cc(O)ccc21` [Compound 078, 2-[4-[2-(dimethylamino)ethoxy]anilino]-6-(7-hydroxy-4-prop-2-enoyl-2,3-dihydroquinoxalin-1-yl)-8-methyl-pyrido[2,3-d]pyrimidin-7-one], the GI50 in assay [1] and in assay [2] was ≤ 0.25 µM each time.

Turning to `C=CC(=O)N1CCN(c2cc3cnc(Nc4ccc(OCCN(C)C)cc4)nc3n(-c3cccnc3)c2=O)c2cccc(C)c21` [Compound 067], the GI50 in assay [1] and in assay [2] was ≤ 0.25 µM each time.

As for `C=CC(=O)N1CCN(c2cc3cnc(N)nc3n(-c3ccc(N4CCN(C)CC4)cc3)c2=O)c2cccc(C)c21` [Compound 092, 2-amino-8-[4-(4-methylpiperazin-1-yl)phenyl]-6-(5-methyl-4-prop-2-enoyl-2,3-dihydroquinoxalin-1-yl)pyrido[2,3-d]pyrimidin-7-one], the GI50 in assay [1] and in assay [2] was ≤ 0.25 µM throughout.

For `C=CC(=O)N1CCN(c2cc3cnc(Nc4ccc(N5CCN(C)CC5)c(F)c4)nc3n(C)c2=O)c2cccc(C)c21` [Compound 040], the GI50 in assay [1] and in assay [2] was ≤ 0.25 µM each time.

Take `C=CC(=O)N1CCN(c2c(F)c3cnc(Nc4ccc(N5CCN(C)CC5)cc4)nc3n(C)c2=O)c2c(F)cc(F)c(C)c21` [Compound 059, 6-(6,8-difluoro-5-methyl-4-prop-2-enoyl-2,3-dihydroquinoxalin-1-yl)-5-fluoro-8-methyl-2-[4-(4-methylpiperazin-1-yl)anilino]pyrido[2,3-d]pyrimidin-7-one]: the GI50 in assay [1] and in assay [2] was ≤ 0.25 µM throughout.

For `C=CC(=O)N1CCN(c2cc3cnc(Nc4cc(OC)ncc4C)nc3n(C)c2=O)c2cccc(C)c21` [Compound 063], the GI50 was 0.25 to 0.5 µM in assay [1] and 0.5 to 2.5 µM in assay [2].

`C=CC(=O)N1CCN(c2cc3cnc(N)nc3n([C@H]3CC[C@H](OC)CC3)c2=O)c2cccc(C)c21` [Compound 086, 2-amino-8-(4-methoxycyclohexyl)-6-(5-methyl-4-prop-2-enoyl-2,3-dihydroquinoxalin-1-yl)pyrido[2,3-d]pyrimidin-7-one]: the GI50 in assay [1] and in assay [2] was ≤ 0.25 µM each time.

For the compound `C=CC(=O)N1CCN(c2cc3cnc(Nc4ccc(OCCN(C)C)cc4)nc3n(C3CC(F)(F)C3)c2=O)c2cccc(C)c21` [Compound 055, 8-(3,3-difluorocyclobutyl)-2-[4-[2-(dimethylamino)ethoxy]anilino]-6-(5-methyl-4-prop-2-enoyl-2,3-dihydroquinoxalin-1-yl)pyrido[2,3-d]pyrimidin-7-one], the GI50 in assay [1] and in assay [2] was ≤ 0.25 µM in each case.

Consider `C=CC(=O)N1CCN(c2cc3cnc(Nc4ccc(CS(=O)(=O)NC)cc4)nc3n(C)c2=O)c2cccc(C)c21` [Compound 034, N-methyl-1-[4-[[8-methyl-6-(5-methyl-4-prop-2-enoyl-2,3-dihydroquinoxalin-1-yl)-7-oxo-pyrido[2,3-d]pyrimidin-2-yl]amino]phenyl]methanesulfonamide], for which the GI50 in assay [1] and in assay [2] was ≤ 0.25 µM throughout.

`C=CC(=O)N1CCN(c2cc3cnc(Nc4ccc(OCCN(C)C)cc4)nc3n(C3CC(O)C3)c2=O)c2cccc(C)c21` (stereo not drawn) [Compound 042, 2-[4-[2-(dimethylamino)ethoxy]anilino]-8-(3-hydroxycyclobutyl)-6-(5-methyl-4-prop-2-enoyl-2,3-dihydroquinoxalin-1-yl)pyrido[2,3-d]pyrimidin-7-one]: the GI50 in assay [1] and in assay [2] was ≤ 0.25 µM each time.

With `C=CC(=O)N1CCN(c2cc3cnc(Nc4ccccc4)nc3n([C@H]3C[C@H](O)C3)c2=O)c2cccc(C)c21` [Compound 070], the GI50 in assay [1] and in assay [2] was ≤ 0.25 µM throughout.

As for `C=CC(=O)N1CCN(c2cc3cnc(N)nc3n(-c3ccc(OC4COC4)cc3)c2=O)c2cccc(C)c21` [Compound 093, 2-amino-6-(5-methyl-4-prop-2-enoyl-2,3-dihydroquinoxalin-1-yl)-8-[4-(oxetan-3-yloxy)phenyl]pyrido[2,3-d]pyrimidin-7-one], the GI50 was ≤ 0.25 µM in assay [1] and 0.25 to 0.5 µM in assay [2].

Regarding `C=C(F)C(=O)N1CCN(c2cc3cnc(Nc4cnn(CCO)c4)nc3n(C)c2=O)c2ccccc21` [Compound 013, 6-[4-(2-fluoroprop-2-enoyl)-2,3-dihydroquinoxalin-1-yl]-2-[[1-(2-hydroxyethyl)pyrazol-4-yl]amino]-8-methyl-pyrido[2,3-d]pyrimidin-7-one], the GI50 is ≤ 0.25 µM in assay [1] and 0.25 to 0.5 µM in assay [2].

With `C=CC(=O)N1CCC(c2cc3cnc(Nc4cnn(CCO)c4)nc3n(C)c2=O)c2ccccc21` (stereo not drawn) [Compound 017, 2-[[1-(2-hydroxyethyl)pyrazol-4-yl]amino]-8-methyl-6-(1-prop-2-enoyl-3,4-dihydro-2H-quinolin-4-yl)pyrido[2,3-d]pyrimidin-7-one], the GI50 in assay [1] and in assay [2] was ≤ 0.25 µM throughout.

For the compound `C=CC(=O)N1CCN(c2cc3cnc(N)nc3n(-c3ccc(N4CCOCC4)cc3)c2=O)c2cccc(C)c21` [Compound 089, 2-amino-6-(5-methyl-4-prop-2-enoyl-2,3-dihydroquinoxalin-1-yl)-8-(4-morpholinophenyl)pyrido[2,3-d]pyrimidin-7-one], the GI50 in assay [1] and in assay [2] was ≤ 0.25 µM in each case.

Consider `C=CC(=O)N1CCN(c2cc3cnc(Nc4ccnc(OC)c4)nc3n(C)c2=O)c2cccc(C)c21` [Compound 062], for which the GI50 in assay [1] and in assay [2] was ≤ 0.25 µM in each case.

`C=CC(=O)N1CCN(c2cc3cnc(Nc4ccc(CC5CN(S(C)(=O)=O)C5)cc4)nc3n(C)c2=O)c2cccc(C)c21` [Compound 048, 8-methyl-6-(5-methyl-4-prop-2-enoyl-2,3-dihydroquinoxalin-1-yl)-2-[4-[(1-methylsulfonylazetidin-3-yl)methyl]anilino]pyrido[2,3-d]pyrimidin-7-one]: the GI50 in assay [1] and in assay [2] was ≤ 0.25 µM in each case.

For `C=CC(=O)N1CCN(c2cc3cnc(Nc4ccc(N5CCN(C)CC5)cc4)nc3n(C)c2=O)c2cccc(OC)c21` [Compound 021], the GI50 in assay [1] and in assay [2] was ≤ 0.25 µM in each case.

Consider `C=CC(=O)N1CCN(c2cc3cnc(N)nc3n(-c3ccc(N(C)CCOC)cc3)c2=O)c2cccc(C)c21` [Compound 099, 2-amino-8-[4-[2-methoxyethyl(methyl)amino]phenyl]-6-(5-methyl-4-prop-2-enoyl-2,3-dihydroquinoxalin-1-yl)pyrido[2,3-d]pyrimidin-7-one], for which the GI50 in assay [1] and in assay [2] was ≤ 0.25 µM each time.

Take `C=CC(=O)N1CCN(c2cc3cnc(N)nc3n(-c3cccc(Cl)c3)c2=O)c2cccc(C)c21` [Compound 091, 2-amino-8-(3-chlorophenyl)-6-(5-methyl-4-prop-2-enoyl-2,3-dihydroquinoxalin-1-yl)pyrido[2,3-d]pyrimidin-7-one]: the GI50 in assay [1] was ≤ 0.25 µM; in assay [2], 0.25 to 0.5 µM.

With `C=CC(=O)N1CCN(c2cc3cnc(N)nc3n(-c3cccc(O)c3)c2=O)c2cccc(C)c21` [Compound 098, 2-amino-8-(3-hydroxyphenyl)-6-(5-methyl-4-prop-2-enoyl-2,3-dihydroquinoxalin-1-yl)pyrido[2,3-d]pyrimidin-7-one], the values for the GI50 in assay [1] and in assay [2] were 0.25 to 0.5 µM and 0.5 to 2.5 µM, respectively.

Turning to `C=CC(=O)N1CCN(c2cc3cnc(NC4CC4)nc3n(-c3ccc(N(C)CCN(C)C)cc3)c2=O)c2cccc(C)c21` [Compound 095, 2-(cyclopropylamino)-8-[4-[2-(dimethylamino)ethyl-methyl-amino]phenyl]-6-(5-methyl-4-prop-2-enoyl-2,3-dihydroquinoxalin-1-yl)pyrido[2,3-d]pyrimidin-7-one], the GI50 in assay [1] and in assay [2] was ≤ 0.25 µM in each case.
